Where two headings read alike, the source gives them in different places.
Columns and labels:
V-ATPase = test: Proton transfer inhibition: intracellular pH recovery after ammonium chloride pulse in isolated, microperfused human eccrine sweat reabsorptive ducts (BCECF-type probe); assay type: cell-based; settings: for Inhibition of proton transfer out of the cells of the reabsorptive duct: significant at the 95% level (Student t-test); for Rate of pH recovery (%): control = 100, after 20 mM basolateral ammonium chloride pulse, 37° C.
Protocol: Human eccrine sweat ducts were isolated using the Kealey shearing technique (Lee C. M., Jones C. J., and Kealey T., J. Cell. Sci., 72, 1984, 259-274). Isolated portions of reabsorptive duct were mounted on a conventional microperfusion apparatus, between glass pipettes. One end of the duct was cannulated with a microperfusion pipette. The ducts were perfused at 37° C. with a control solution containing N-methyl-D-glucamine chloride (114 mM), potassium hydrogenphosphate (2.5 mM), magnesium chloride (1 mM), calcium chloride (1 mM), glucose (5 mM), and N-methyl-D-glucamine lactate (4 mM). Osmolality was adjusted to 300 mOsm/kg with mannitol and the pH adjusted to 7.4 with tris-HEPES. Intracellular pH was measured using the pH sensitive fluorescent probe BCEFC (bis-2-carboxyethyl-carbfluorescein) at 5 μM.
[…].
In the next part of the procedure, the indicated sweat ducts were subjected to acidification by a 20 mM basolateral pulse of ammonium chloride, with the additional presence of a V-ATPase inhibitor.

[1] = tested on: Staphylococcus epidermidis; settings: 80% or greater reduction in growth over 16 to 24 hours at 37° C., cited from earlier work

V-ATPase, sequence (P27449 whole entry, the tested form may be a part): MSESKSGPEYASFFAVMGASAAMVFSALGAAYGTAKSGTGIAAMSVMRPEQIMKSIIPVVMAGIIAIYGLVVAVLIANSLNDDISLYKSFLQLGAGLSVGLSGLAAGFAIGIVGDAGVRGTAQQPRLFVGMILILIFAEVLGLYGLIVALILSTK

## CO/C1=C\C(C)=C\[C@@H](C)[C@@H](O)[C@@H](C)C/C(C)=C/C=C/[C@H](OC)[C@@H]([C@@H](C)[C@@H](O)[C@H](C)[C@@]2(O)C[C@@H](O)[C@H](C)[C@@H](C(C)C)O2)OC1=O [Bafilomycin-A1, bafilomycin A1]
V-ATPase; at 6.2 μg/ml
  Inhibition of proton transfer out of the cells of the reabsorptive duct: inhibit proton transfer
V-ATPase; inhibitor at 6.2 μg/ml
  Rate of pH recovery (%): 27%

## C/C=C/[C@H]1O[C@@](O)([C@@H](C)[C@H](O)[C@H](C)[C@H]2OC(=O)/C(OC)=C/C(C)=C/[C@@H](C)[C@@H](O)[C@@H](CC)[C@@H](O)[C@H](C)C/C(C)=C/C=C/[C@@H]2OC)C[C@@H](O[C@H]2C[C@@H](O)[C@H](OC(N)=O)[C@@H](C)O2)[C@@H]1C [Concanamycin-A, concanamycin A]
V-ATPase; at 0.1 μg/ml
  Inhibition of proton transfer out of the cells of the reabsorptive duct: inhibit proton transfer
V-ATPase; inhibitor at 0.1 μg/ml
  Rate of pH recovery (%): 5%

## CCO [ethanol]
[1]; stated without source
  MIC: greater than 1 mg.ml^−1

## CC(C)=CCCC(C)=CCCC(C)=CCO [farnesol, 3,7,11-trimethyldodeca-2,6,10-trienol]
[1]; literature values
  MIC: ca. 25 μg.ml^−1

## Oc1cc(Cl)ccc1Oc1ccc(Cl)cc1Cl [triclosan, 2′,4,4′-trichloro,2-hydroxy-diphenyl ether]
[1]; literature values
  MIC: 0.01 to 10 µg/mL

## olygomycin
V-ATPase; at 20 μg/ml
  Inhibition of proton transfer out of the cells of the reabsorptive duct: inhibit proton transfer
V-ATPase; inhibitor at 20 μg/ml
  Rate of pH recovery (%): 12%

From patent publication US6509010B2, “Cosmetic products for the reduction of sweat acidity” (Unilever Home & Personal Care USA, division of Conopco, Inc., priority 2001, dated 2003)
